The results in this text go back to publication PMC6321055, “Synthesis of Novel ent-Kaurane-Type Diterpenoid Derivatives Effective for Highly Aggressive Tumor Cells” (Molecules, 2018).

One data set has as its system SNU-1040. The data set is described as follows: MTT cytotoxicity assay, SNU-1040. Particulars: Homo sapiens, 24 h, read-out: In vitro cytotoxic activity IC50, SNU-1040.
For a further data set, the system named is HepG2. As to the kind of experiment: MTT cytotoxicity assay, HepG2. Particulars: for IC50: Homo sapiens, HepG2, 24 h, read-out: In vitro cytotoxic activity IC50, HepG2; for SI (selective index, IC50 of normal cells/IC50 of tumor cells): IC50 L6 / IC50 HepG2. A general note: Tetrazolium assays rely on reduction of a dye to a coloured formazan, in cell work by metabolically active cells.

Another data set can be described thus: in vitro. To be noted: rat.
A further data set relates to NSCLC-H292. The data set is described as follows: MTT cytotoxicity assay, NSCLC-H292. To be noted: Homo sapiens, 24 h, read-out: In vitro cytotoxic activity IC50, NSCLC-H292.
A short description of data set [1]: MTT cytotoxicity assay, L6 normal cells. Particulars: rat, L6 rat myotube cells (normal cells).
Experimental: (§1) Cells were purchased from the Wuxi Innovatbio Medicine Technology Co. LTD (Wuxi, China) and were maintained at 37 °C under the atmosphere of 5% CO2. The cells of human non-small lung cancer (H292) and colon cancer cell line (SNU-1040) cells were cultured in RPMI-medium and others (rat myoblasts and HepG2) were cultured in dulbecco′s modified eagle medium (DMEM). 10% fetal bovine serum (Tianhang Biotechnology Co., Ltd., Zhejiang, China) and 1% antibiotics (100 U/mL penicillin and 100 mg/mL streptomycin) was supplemented. Cells are inoculated in 96-well plate and cultured for 24 h. After attached to the culture bottle wall cells were divided cells into three groups, (1) control group; (2) positive control group; (3) experiment group. […] After 24 h, 10% MTT was added and cells were culture for 3.5 h. Then the culture medium was discard and 150 µL DMSO was added. Eventually, after incubation for 10 min by shaking in the dark at room temperature, the absorbance was detected at 490 nm using a microplate reader, and the difference was analyzed by prism 7 software.

Molecules are shown by their SMILES. Where only a bound is given, the exact number is not on record here.

Experimental for HepG2: as §1
Experimental for NSCLC-H292: as §1
Experimental for SNU-1040: as §1
Experimental for in vitro: as §1

Regarding `C=C1C[C@]2(C(=O)OCC)C[C@H]1C(=O)C[C@@H]2C1CC(C)(C)C=CC1=O` (some centres unmarked) [Compound 13], the melting point (usually the temperature of the solid-liquid transition) is 112 to 114.6 °C. Also, the IC50 (commonly the concentration that gives 50% inhibition) in the data set on SNU-1040 is 1410 nM. Further, the 50% inhibitory concentration (IC50) in the data set on HepG2 was greater than 10000 nM. The same compound displayed an IC50 at 24 h in the data set “in vitro” greater than 10000 nM. In addition, the concentration for half-maximal inhibition (IC50) with NSCLC-H292 was 4440 nM.
Compound `C=C1C[C@]2(C(=O)OCC)C[C@H]1C(=O)C[C@H]2C1CC(C)(C)C=CC1=O` (some centres unmarked) [Compound 14] yielded a melting point of 103.2 to 105.8 °C. In addition, the IC50 in the data set with SNU-1040 came out at 1720 nM. The 50% inhibitory concentration (IC50) in the data set with HepG2 is greater than 10000 nM. This compound returned an IC50 at 24 h in the data set “in vitro” greater than 10000 nM. For the same compound, in the data set on NSCLC-H292, the IC50 came to 2950 nM.
Consider `C=C1C(O)[C@]2(C(=O)OCC)C[C@H]1C(=O)C[C@@H]2C1CC(C)(C)C=CC1=O` (some centres unmarked) [Compound 15], for which the results for the IC50 with SNU-1040, in the data set on HepG2 and in the data set with NSCLC-H292 were 3130 nM, 1810 nM and 1990 nM, respectively. Further, the 50% inhibitory concentration (IC50) at 24 h in “in vitro” is greater than 10000 nM.
With `C=C1C(=O)[C@]2(C(=O)OCC)C[C@H]1C(=O)C[C@@H]2C1CC(C)(C)C=CC1=O` (some centres unmarked) [Compound 16], the figures for the IC50 in the data set on SNU-1040, in the data set with HepG2 and in the data set with NSCLC-H292 were 2440 nM, 330 nM and 1690 nM, respectively. The “SI (selective index, IC50 of normal cells/IC50 of tumor cells)” value in the data set on HepG2 was 161.06. In the data set “in vitro”, the IC50 at 24 h was greater than 10000 nM.
For `C=C1C(O)[C@]2(C(=O)OCC)C[C@H]1C(=O)C[C@H]2C1CC(C)(C)C=CC1=O` (some centres unmarked) [Compound 17], in that order: 2820 nM, 1580 nM, 990 nM, 47.80 and greater than 10000 nM.
Take `C=C1C(=O)[C@]2(C(=O)OCC)C[C@H]1C(=O)C[C@H]2C1CC(C)(C)C=CC1=O` (some centres unmarked) [Compound 18]: the IC50 with SNU-1040 came to 3010 nM; in the data set on HepG2, 560 nM; with NSCLC-H292, 1350 nM. In the data set “in vitro”, the IC50 at 24 h is greater than 10000 nM.
`C=C1C(=O)[C@]23C[C@H]1CC[C@H]2[C@@]12CO[C@]3(O)[C@@H](O)[C@@H]1C(C)(C)C=CC2=O` [Eriocalyxin B, reference compound]: the IC50 in the data set on SNU-1040 came to 1540 nM; in the data set with HepG2, 2120 nM; with NSCLC-H292, 7110 nM. The compound further gave a 50% inhibitory concentration (IC50) at 24 h in data set [1] greater than 10000 nM.
